{
  "source": "ChEMBL document CHEMBL1124217",
  "about": "“2,4-Diamino-5-benzylpyrimidines and analogues as antibacterial agents. 9. Lipophilic trimethoprim analogues as antigonococcal agents” (J Med Chem, 1988)",
  "key": {"[1]": {"system": "Rattus norvegicus", "assay": "Conc in serum of male rat 3h after administration of dose", "format": "functional, organism-based"}, "[2]": {"system": "Staphylococcus aureus", "assay": "Inhibition of growth of Staphylococcus aureus (CN491) measured as MIC compound/MIC Trimethoprim", "format": "functional"}, "[3]": {"system": "Rattus norvegicus", "assay": "Conc in muscle of male rat 0.75h after administration of dose", "format": "functional, organism-based", "conditions": "Muscle tissue"}, "[4]": {"system": "Rattus norvegicus", "assay": "Conc in ovary of female rat 24 hr after administration of dose", "format": "functional, organism-based", "conditions": "Female gonad"}, "[5]": {"system": "Rattus norvegicus", "assay": "Conc in intestine of male rat 2 hr after administration of dose", "format": "functional, organism-based"}, "[6]": {"system": "Rattus norvegicus", "assay": "Conc in serum of female rat 2 hr after administration of dose", "format": "functional, organism-based"}, "[7]": {"system": "Rattus norvegicus", "assay": "Conc in ovary of female rat 10h after administration of dose", "format": "functional, organism-based", "conditions": "Female gonad"}, "[8]": {"system": "Rattus norvegicus", "assay": "Conc in ovary of female rat 2 hr after administration of dose", "format": "functional, organism-based", "conditions": "Female gonad"}, "[9]": {"system": "Rattus norvegicus", "assay": "Conc in ovary of female rat 0.75h after administration of dose", "format": "functional, organism-based", "conditions": "Female gonad"}, "[10]": {"system": "Rattus norvegicus", "assay": "Conc in kidney of male rat 24 hr after administration of dose", "format": "functional, organism-based"}, "[11]": {"system": "Rattus norvegicus", "assay": "Conc in brain of male rat 4 hr after administration of dose", "format": "functional, organism-based"}, "[12]": {"system": "Rattus norvegicus", "assay": "Conc in kidney of male rat 10h after administration of dose", "format": "functional, organism-based"}, "[13]": {"system": "Rattus norvegicus", "assay": "Conc in muscle of male rat 4 hr after administration of dose", "format": "functional, organism-based", "conditions": "Muscle tissue"}, "[14]": {"system": "Rattus norvegicus", "assay": "Conc in intestine of male rat 0.50 hr after administration of dose", "format": "functional, organism-based"}, "[15]": {"system": "Rattus norvegicus", "assay": "Conc in stomach of male rat 0.75h after administration of dose", "format": "functional, organism-based"}, "[16]": {"system": "Rattus norvegicus", "assay": "Conc in liver of male rat after 0.75h administration of dose", "format": "functional, organism-based"}, "[17]": {"system": "Rattus norvegicus", "assay": "Conc in muscle of male rat 3h after administration of dose", "format": "functional, organism-based", "conditions": "Muscle tissue"}, "[18]": {"system": "Rattus norvegicus", "assay": "Conc in intestine of male rat 10h after administration of dose", "format": "functional, organism-based"}, "[19]": {"system": "Rattus norvegicus", "assay": "Conc in lung of male rat 2 hr after administration of dose", "format": "functional, organism-based"}, "[20]": {"system": "Rattus norvegicus", "assay": "Conc in lung of male rat 0.50 hr after administration of dose", "format": "functional, organism-based"}, "[21]": {"system": "Rattus norvegicus", "assay": "Conc in brain of male rat 0.50 hr after administration of dose", "format": "functional, organism-based"}, "[22]": {"system": "Rattus norvegicus", "assay": "Conc in serum of male rat 0.50 hr after administration of dose", "format": "functional, organism-based"}, "[23]": {"system": "Rattus norvegicus", "assay": "Conc in intestine of male rat 6 hr after administration of dose", "format": "functional, organism-based"}, "[24]": {"system": "Rattus norvegicus", "assay": "Conc in stomach of male rat 0.50 hr after administration of dose", "format": "functional, organism-based"}, "[25]": {"system": "Rattus norvegicus", "assay": "Conc in muscle of male rat 0.25 hr after administration of dose", "format": "functional, organism-based", "conditions": "Muscle tissue"}, "[26]": {"system": "Rattus norvegicus", "assay": "Conc in lung of male rat 24 hr after administration of dose", "format": "functional, organism-based"}, "[27]": {"system": "Rattus norvegicus", "assay": "Conc in lung of male rat 4 hr after administration of dose", "format": "functional, organism-based"}, "[28]": {"system": "Rattus norvegicus", "assay": "Conc in lung of male rat 1 hr after administration of dose", "format": "functional, organism-based"}, "[29]": {"system": "Rattus norvegicus", "assay": "Conc in muscle of male rat 2 hr after administration of dose", "format": "functional, organism-based", "conditions": "Muscle tissue"}, "[30]": {"system": "Rattus norvegicus", "assay": "Conc in liver of male rat 3h after administration of dose", "format": "functional, organism-based"}, "[31]": {"system": "Rattus norvegicus", "assay": "Conc in muscle of male rat 10h after administration of dose", "format": "functional, organism-based", "conditions": "Muscle tissue"}, "[32]": {"system": "Rattus norvegicus", "assay": "Conc in testes of male 1 hr rat after administration of dose", "format": "functional, organism-based", "conditions": "Testis"}, "[33]": {"system": "Rattus norvegicus", "assay": "Conc in brain of male rat 10h after administration of dose", "format": "functional, organism-based"}, "[34]": {"system": "Rattus norvegicus", "assay": "Conc in stomach of male rat 24 hr after administration of dose", "format": "functional, organism-based"}, "[35]": {"system": "Rattus norvegicus", "assay": "Conc in brain of male rat 1.5h after administration of dose", "format": "functional, organism-based"}, "[36]": {"system": "Escherichia coli", "assay": "Inhibition of growth of Escherichia coli (CN314) measured as MIC compound/MIC Trimethoprim", "format": "functional"}, "[37]": {"system": "Rattus norvegicus", "assay": "Conc in serum of female rat 0.50 hr after administration of dose", "format": "functional, organism-based"}},
  "data": [
    {"smiles": "CC(C)c1cc(Cc2cnc(N)nc2N)cc(C(C)C)c1O", "values": [
      {"measurement": "Concentration", "setting": "[1]", "value": 0.47, "unit": "µg/g"},
      {"measurement": "MIC ratio", "setting": "[2]", "value": 10},
      {"measurement": "Concentration", "setting": "[3]", "value": 2.31, "unit": "µg/g"},
      {"measurement": "Concentration", "setting": "[4]", "value": 0.08, "unit": "µg/g"},
      {"measurement": "Concentration", "setting": "[5]", "value": 11.6, "unit": "µg/g"},
      {"measurement": "Concentration", "setting": "[6]", "value": 0.68, "unit": "µg/g"},
      {"measurement": "Concentration", "setting": "[7]", "value": 0.23, "unit": "µg/g"},
      {"measurement": "Concentration", "setting": "[8]", "value": 1.93, "unit": "µg/g"},
      {"measurement": "Concentration", "setting": "[9]", "value": 4.48, "unit": "µg/g"},
      {"measurement": "Concentration", "setting": "[10]", "value": 0.5, "unit": "µg/g"},
      {"measurement": "Concentration", "setting": "[11]", "value": 0.19, "unit": "µg/g"},
      {"measurement": "Concentration", "setting": "[12]", "value": 1.13, "unit": "µg/g"},
      {"measurement": "Concentration", "setting": "[13]", "value": 0.67, "unit": "µg/g"},
      {"measurement": "Concentration", "setting": "[14]", "value": 114, "unit": "µg/g"},
      {"measurement": "Concentration", "setting": "[15]", "value": 319, "unit": "µg/g"},
      {"measurement": "Concentration", "setting": "[16]", "value": 23.1, "unit": "µg/g"},
      {"measurement": "Concentration", "setting": "[17]", "value": 1.38, "unit": "µg/g"},
      {"measurement": "Concentration", "setting": "[18]", "value": 2.29, "unit": "µg/g"},
      {"measurement": "Concentration", "setting": "[19]", "value": 4.98, "unit": "µg/g"},
      {"measurement": "Concentration", "setting": "[20]", "value": 8.31, "unit": "µg/g"},
      {"measurement": "Concentration", "setting": "[21]", "value": 0.58, "unit": "µg/g"},
      {"measurement": "Concentration", "setting": "[22]", "value": 1.12, "unit": "µg/g"},
      {"measurement": "Concentration", "setting": "[23]", "value": 4.13, "unit": "µg/g"},
      {"measurement": "Concentration", "setting": "[24]", "value": 304, "unit": "µg/g"},
      {"measurement": "Concentration", "setting": "[25]", "value": 0.44, "unit": "µg/g"},
      {"measurement": "Concentration", "setting": "[26]", "value": 0.1, "unit": "µg/g"},
      {"measurement": "Concentration", "setting": "[27]", "value": 2.3, "unit": "µg/g"},
      {"measurement": "Concentration", "setting": "[28]", "value": 11.9, "unit": "µg/g"},
      {"measurement": "Concentration", "setting": "[29]", "value": 1.4, "unit": "µg/g"},
      {"measurement": "Concentration", "setting": "[30]", "value": 9.56, "unit": "µg/g"},
      {"measurement": "Concentration", "setting": "[31]", "value": 0.13, "unit": "µg/g"},
      {"measurement": "Concentration", "setting": "[32]", "value": 1.32, "unit": "µg/g"},
      {"measurement": "Concentration", "setting": "[33]", "value": 0.04, "unit": "µg/g"},
      {"measurement": "Concentration", "setting": "[34]", "value": 1.49, "unit": "µg/g"},
      {"measurement": "Concentration", "setting": "[35]", "value": 0.65, "unit": "µg/g"},
      {"measurement": "MIC ratio", "setting": "[36]", "value": 300},
      {"measurement": "Concentration", "setting": "[37]", "value": 0.9, "unit": "µg/g"}
    ]}
  ]
}
